# Values joined by “and” are separate entries in the source; they are usually repeats but may differ in a detail not shown here. Identical values can stand only once.
# Legend:
# [1] = test system: C. granulosum (ATCC 25564); experiment: MIC evaluation, optical density and percentage of inhibition; format: cell-based, Cutibacterium granulosum
# Excerpt: The minimum inhibitory concentration of the following active ingredients has been assessed: • Mangifera indica extract (in propanediol/water 75/25); • Vehicule (propanediol/water 75/25, expressed as Activolo3-75%); • “Pool Mangiferin” which is the pure molecule mangiferin at the same concentration in the Mangifera indica extract in propanediol/water 75/25. • “Pool Mangifera” with is the mix of the 4 molecules (mangiferin, maclurin-C-glucoside, irifluophenone-C-glucoside, gallotanin) at the same concentration in the Mangifera indica extract in propane-diol/water 75/25. […] After two days, the bacterial concentration was adjusted in reinforced clostridial broth to obtain a solution at 1.106 CFU/ml (5.104 CFU/well). […] Concentrations are expressed in % (m/v). […] The diluted bacterial suspension was added to columns 2 to 12. RCB medium was added to column 1 as negative control. Optical density was determined, which correlates to the bacterial growth.
# [2] = test system: S. aureus (ATCC 33592); experiment: as above; format: cell-based, Staphylococcus aureus
# Excerpt: The minimum inhibitory concentration of the following active ingredients has been assessed: • Mangifera indica extract (in propanediol/water 75/25); • Vehicule (propanediol/water 75/25, expressed as Activolo3-75%); • “Pool Mangiferin” which is the pure molecule mangiferin at the same concentration in the Mangifera indica extract in propanediol/water 75/25. • “Pool Mangifera” with is the mix of the 4 molecules (mangiferin, maclurin-C-glucoside, irifluophenone-C-glucoside, gallotanin) at the same concentration in the Mangifera indica extract in propane-diol/water 75/25. S. aureus: The day before the experiment S. aureus (ATCC 33592) was plated and grown overnight at 37° C. Colonies were resuspended in 5 mL of TSB (Tryptic Soy Broth) to obtain a 0.5 McFarland D O (≈1.10^8 CFU/ml) (launch of culture at D-1). […] Concentrations are expressed in % (m/v). […] The diluted bacterial suspension was added to columns 2 to 12. RCB medium was added to column 1 as negative control. Optical density was determined, which correlates to the bacterial growth.
# [3] = test system: P. acnes (ATCC 6919); experiment: TKC (Time Kill Curve) determination; format: cell-based, Propionibacterium acnes
# Description: Each strain was plated on appropriate plate and grown in the appropriate conditions. Colonies were resuspended in 5 mL of PBS to obtain a 0.5 McFarland O D (approximately 1.10^8 cfu/ml).After two days, the bacterial concentrations we readjusted in reinforced clostridial broth to obtain a solution at 1.10^6 CFU/ml (5.10^4 CFU/well). […] Bacteria quantification has been repeated at […]. For bacteria quantification a Colony counter IUL instruments, flash and go model was used. A Time Kill Curve (TKC) was performed to determine the effect of the active versus placebo on the growth of Propionibacterium acnes.
# [4] = 0.39 10^−2 % (m/v), plate col. 12
# [5] = 0.78 10^−2 % (m/v), plate col. 11
# [6] = 1.56 10^−2 % (m/v), plate col. 10
# [7] = 3.1310^−2 % (m/v), plate col. 9
# [8] = 6.25 10^−2 % (m/v), plate col. 8
# [9] = 12.5 10^−2 % (m/v), plate col. 7
# [10] = 25.0 10^−2 % (m/v), plate col. 6
smiles,measurement,setting,value
O=c1c2cc(O)c(O)cc2oc2cc(O)c([C@@H]3O[C@H](CO)[C@@H](O)[C@H](O)[C@H]3O)c(O)c12 [pool mangiferin],"Optical density, C. granulosum",[1]; [4],0.546 and 0.539
same,"Percentage of inhibition, C. granulosum",[1]; [4],0.5% and 1.9%
same,"Optical density, C. granulosum","[1]; 0.5% (m/v), plate col. 5",0.449 and 0.457
same,"Percentage of inhibition, C. granulosum","[1]; 0.5% (m/v), plate col. 5",19.9% and 18.3%
same,"Optical density, C. granulosum",[1]; [5],0.561
same,"Percentage of inhibition, C. granulosum",[1]; [5],0%
same,"Optical density, C. granulosum","[1]; 1% (m/v), plate col. 4",0.417 and 0.419
same,"Percentage of inhibition, C. granulosum","[1]; 1% (m/v), plate col. 4",26.3% and 25.9%
same,"Optical density, C. granulosum",[1]; [6],0.573 and 0.570
same,"Percentage of inhibition, C. granulosum",[1]; [6],0%
same,"Optical density, C. granulosum","[1]; 2% (m/v), plate col. 3",0.391 and 0.398
same,"Percentage of inhibition, C. granulosum","[1]; 2% (m/v), plate col. 3",31.5% and 30.1%
same,"Optical density, C. granulosum",[1]; [7],0.592 and 0.558
same,"Percentage of inhibition, C. granulosum",[1]; [7],0%
same,"Optical density, C. granulosum",[1]; [8],0.545
same,"Percentage of inhibition, C. granulosum",[1]; [8],0.7%
same,"Optical density, C. granulosum",[1]; [9],0.505 and 0.520
same,"Percentage of inhibition, C. granulosum",[1]; [9],8.7% and 5.7%
same,"Optical density, C. granulosum",[1]; [10],0.479 and 0.478
same,"Percentage of inhibition, C. granulosum",[1]; [10],13.9% and 14.1%
same,antibacterial effect against C. granulosum (in words),[1]; at 2%,slight antibacterial effect
same,"Optical density, S. aureus",[2]; [4],0.387 and 0.392
same,"Percentage of inhibition, S. aureus",[2]; [4],3.0% and 1.6%
same,"Optical density, S. aureus","[2]; 0.5% (m/v), plate col. 5",0.363 and 0.359
same,"Percentage of inhibition, S. aureus","[2]; 0.5% (m/v), plate col. 5",9.8% and 11.0%
same,"Optical density, S. aureus",[2]; [5],0.384 and 0.366
same,"Percentage of inhibition, S. aureus",[2]; [5],3.9% and 9.0%
same,"Optical density, S. aureus","[2]; 1% (m/v), plate col. 4",0.346 and 0.348
same,"Percentage of inhibition, S. aureus","[2]; 1% (m/v), plate col. 4",14.7% and 14.1%
same,"Optical density, S. aureus",[2]; [6],0.365 and 0.369
same,"Percentage of inhibition, S. aureus",[2]; [6],9.3% and 8.1%
same,antibacterial effect on S. aureus (in words),[2]; 2%,slight antibacterial effect
same,"Optical density, S. aureus","[2]; 2% (m/v), plate col. 3",0.320 and 0.327
same,"Percentage of inhibition, S. aureus","[2]; 2% (m/v), plate col. 3",22.1% and 20.1%
same,"Optical density, S. aureus",[2]; [7],0.377 and 0.378
same,"Percentage of inhibition, S. aureus",[2]; [7],5.9% and 5.6%
same,"Optical density, S. aureus",[2]; [8],0.370 and 0.364
same,"Percentage of inhibition, S. aureus",[2]; [8],7.9% and 9.6%
same,"Optical density, S. aureus",[2]; [9],0.368 and 0.367
same,"Percentage of inhibition, S. aureus",[2]; [9],8.4% and 8.7%
same,"Optical density, S. aureus",[2]; [10],0.370 and 0.368
same,"Percentage of inhibition, S. aureus",[2]; [10],7.9% and 8.4%
same,"Time Kill Curve P. acnes, bacteria quantification","[3]; 0.5%, T0",6.0 Log10 CFU/ml
same,"Time Kill Curve P. acnes, bacteria quantification","[3]; 0.5%, T + 4 h",6.2 Log10 CFU/ml
same,"Time Kill Curve P. acnes, bacteria quantification","[3]; 0.5%, T + 8 h",5.7 Log10 CFU/ml
same,"Time Kill Curve P. acnes, bacteria quantification","[3]; 0.5%, T + 24 h",6.6 Log10 CFU/ml
same,"Time Kill Curve P. acnes, bacteria quantification","[3]; 0.5%, T + 32 h",6.7 Log10 CFU/ml
same,"Time Kill Curve P. acnes, bacteria quantification","[3]; 0.5%, T + 48 h",7.8 Log10 CFU/ml
same,"Time Kill Curve P. acnes, bacteria quantification","[3]; 1%, T0",6.0 Log10 CFU/ml
same,"Time Kill Curve P. acnes, bacteria quantification","[3]; 1%, T + 4 h",6.0 Log10 CFU/ml
same,"Time Kill Curve P. acnes, bacteria quantification","[3]; 1%, T + 8 h",5.8 Log10 CFU/ml
same,"Time Kill Curve P. acnes, bacteria quantification","[3]; 1%, T + 24 h",6.5 Log10 CFU/ml
same,"Time Kill Curve P. acnes, bacteria quantification","[3]; 1%, T + 32 h",6.7 Log10 CFU/ml
same,"Time Kill Curve P. acnes, bacteria quantification","[3]; 1%, T + 48 h",7.8 Log10 CFU/ml
same,"Time Kill Curve P. acnes, bacteria quantification","[3]; 2%, T0",6.0 Log10 CFU/ml
same,"Time Kill Curve P. acnes, bacteria quantification","[3]; 2%, T + 4 h",5.7 Log10 CFU/ml
same,"Time Kill Curve P. acnes, bacteria quantification","[3]; 2%, T + 8 h",5.7 Log10 CFU/ml
same,"Time Kill Curve P. acnes, bacteria quantification","[3]; 2%, T + 24 h",6.5 Log10 CFU/ml
same,"Time Kill Curve P. acnes, bacteria quantification","[3]; 2%, T + 32 h",6.7 Log10 CFU/ml
same,"Time Kill Curve P. acnes, bacteria quantification","[3]; 2%, T + 48 h",7.8 Log10 CFU/ml

# Source: US20250352458A1, “IMPROVEMENTS IN OR RELATING TO EXTRACTS” (Givaudan SA, priority 2020, published 2025)
